Measured values taken from ChEMBL document CHEMBL5120890, “Untapped Pharmaceutical Potential of 4,5,4'-Trihydroxy-3,3'-dimethoxybibenzyl for Regulating Obesity: A Cell-Based Study with a Focus on Terminal Differentiation in Adipogenesis” (J Nat Prod, 2022).
Activity calls are given as the source filed them.

What was measured:
3T3-L1 [1] = assay: Down regulation of CDK2 protein expression in mouse 3T3-L1 cells at 0.5 to 5 uM after 18 hrs by western blot analysis; type: functional, cell-based; settings: dose 0.5-5 µM
3T3-L1 [2] = assay: Down regulation of CDK4 protein expression in mouse 3T3-L1 cells at 0.5 to 5 uM after 18 hrs by western blot analysis; type: functional, cell-based; settings: dose 0.5-5 µM
3T3-L1 [3] = assay: Upregulation of p27 protein expression in mouse 3T3-L1 cells at 0.5 to 5 uM after 18 hrs by western blot analysis; type: functional, cell-based; settings: dose 0.5-5 µM
3T3-L1 [4] = assay: Upregulation of p21 protein expression in mouse 3T3-L1 cells at 0.5 to 5 uM after 18 hrs by western blot analysis; type: functional, cell-based; settings: dose 0.5-5 µM
3T3-L1 [5] = assay: Upregulation of p18 protein expression in mouse 3T3-L1 cells at 0.5 to 5 uM after 18 hrs by western blot analysis; type: functional, cell-based; settings: dose 0.5-5 µM
3T3-L1 [6] = assay: Down regulation of SREBP1 protein expression in mouse 3T3-L1 cells at 0.5 to 5 uM after 48 hrs by western blot analysis; type: functional, cell-based; settings: dose 0.5-5 µM, DDE = dose-dependent effect
3T3-L1 [7] = assay: Down regulation of PPARG protein expression in mouse 3T3-L1 cells at 0.5 to 5 uM after 48 hrs by western blot analysis; type: functional, cell-based; settings: dose 0.5-5 µM, DDE = dose-dependent effect
3T3-L1 [8] = assay: Down regulation of C/EBpalpha protein expression in mouse 3T3-L1 cells at 0.5 to 5 uM after 48 hrs by western blot analysis; type: functional, cell-based; settings: dose 0.5-5 µM, DDE = dose-dependent effect
3T3-L1 [9] = assay: Down regulation of SREBP1 mRNA expression in mouse 3T3-L1 cells at 0.5 to 5 uM after 48 hrs by RT-qPCR analysis; type: functional, cell-based; settings: dose 0.5-5 µM, DDE = dose-dependent effect
3T3-L1 [10] = assay: Down regulation of PPARG mRNA expression in mouse 3T3-L1 cells at 0.5 to 5 uM after 48 hrs by RT-qPCR analysis; type: functional, cell-based; settings: dose 0.5-5 µM, DDE = dose-dependent effect
3T3-L1 [11] = assay: Down regulation of C/EBpalpha mRNA expression in mouse 3T3-L1 cells at 0.5 to 5 uM after 48 hrs by RT-qPCR analysis; type: functional, cell-based; settings: dose 0.5-5 µM, DDE = dose-dependent effect
3T3-L1 [12] = assay: Down regulation of PLIN1 protein expression in mouse 3T3-L1 cells in early differentiation at 0.5 to 5 uM after 8 days by western blot analysis; type: functional, cell-based; settings: dose 0.5-5 µM, time 8.0 day
3T3-L1 [13] = assay: Down regulation of LPL protein expression in mouse 3T3-L1 cells in early differentiation at 0.5 to 5 uM after 8 days by western blot analysis; type: functional, cell-based; settings: dose 0.5-5 µM, time 8.0 day
3T3-L1 [14] = assay: Down regulation of adiponectin protein expression in mouse 3T3-L1 cells in early differentiation at 0.5 to 5 uM after 8 days by western blot analysis; type: functional, cell-based; settings: dose 0.5-5 µM, time 8.0 day
3T3-L1 [15] = assay: Down regulation of FABP4 protein expression in mouse 3T3-L1 cells in early differentiation at 0.5 to 5 uM after 8 days by western blot analysis; type: functional, cell-based; settings: dose 0.5-5 µM, time 8.0 day
3T3-L1 [16] = assay: Down regulation of FAS protein expression in mouse 3T3-L1 cells in maturation at 0.5 to 5 uM after 10 days by western blot analysis; type: functional, cell-based; settings: dose 0.5-5 µM, time 10.0 day
3T3-L1 [17] = assay: Down regulation of PL1N1 protein expression in mouse 3T3-L1 cells in maturation at 0.5 to 5 uM after 10 days by western blot analysis; type: functional, cell-based; settings: dose 0.5-5 µM, time 10.0 day
3T3-L1 [18] = assay: Down regulation of LPL protein expression in mouse 3T3-L1 cells in maturation at 0.5 to 5 uM after 10 days by western blot analysis; type: functional, cell-based; settings: dose 0.5-5 µM, time 10.0 day
3T3-L1 [19] = assay: Down regulation of adiponectin protein expression in mouse 3T3-L1 cells in maturation at 0.5 to 5 uM after 10 days by western blot analysis; type: functional, cell-based; settings: dose 0.5-5 µM, time 10.0 day
3T3-L1 [20] = assay: Down regulation of FABP4 protein expression in mouse 3T3-L1 cells in maturation at 0.5 to 5 uM after 10 days by western blot analysis; type: functional, cell-based; settings: dose 0.5-5 µM, time 10.0 day
3T3-L1 [21] = assay: Down regulation of FAS mRNA expression in mouse 3T3-L1 cells in early differentiation at 0.5 to 5 uM after 8 days by RT-qPCR analysis; type: functional, cell-based; settings: dose 0.5-5 µM, time 8.0 day
3T3-L1 [22] = assay: Down regulation of PL1N1 mRNA expression in mouse 3T3-L1 cells in early differentiation at 0.5 to 5 uM after 8 days by RT-qPCR analysis; type: functional, cell-based; settings: dose 0.5-5 µM, time 8.0 day
3T3-L1 [23] = assay: Down regulation of LPL mRNA expression in mouse 3T3-L1 cells in early differentiation at 0.5 to 5 uM after 8 days by RT-qPCR analysis; type: functional, cell-based; settings: dose 0.5-5 µM, time 8.0 day
3T3-L1 [24] = assay: Down regulation of adiponectin mRNA expression in mouse 3T3-L1 cells in early differentiation at 0.5 to 5 uM after 8 days by RT-qPCR analysis; type: functional, cell-based; settings: dose 0.5-5 µM, time 8.0 day
3T3-L1 [25] = assay: Down regulation of FABP4 mRNA expression in mouse 3T3-L1 cells in early differentiation at 0.5 to 5 uM after 8 days by RT-qPCR analysis; type: functional, cell-based; settings: dose 0.5-5 µM, time 8.0 day
3T3-L1 [26] = assay: Down regulation of FAS mRNA expression in mouse 3T3-L1 cells in maturation at 0.5 to 5 uM after 10 days by RT-qPCR analysis; type: functional, cell-based; settings: dose 0.5-5 µM, time 10.0 day
3T3-L1 [27] = assay: Down regulation of PL1N1 mRNA expression in mouse 3T3-L1 cells in maturation at 0.5 to 5 uM after 10 days by RT-qPCR analysis; type: functional, cell-based; settings: dose 0.5-5 µM, time 10.0 day
3T3-L1 [28] = assay: Down regulation of LPL mRNA expression in mouse 3T3-L1 cells in maturation at 0.5 to 5 uM after 10 days by RT-qPCR analysis; type: functional, cell-based; settings: dose 0.5-5 µM, time 10.0 day
3T3-L1 [29] = assay: Down regulation of adiponectin mRNA expression in mouse 3T3-L1 cells in maturation at 0.5 to 5 uM after 10 days by RT-qPCR analysis; type: functional, cell-based; settings: dose 0.5-5 µM, time 10.0 day
3T3-L1 [30] = assay: Down regulation of FABP4 mRNA expression in mouse 3T3-L1 cells in maturation at 0.5 to 5 uM after 10 days by RT-qPCR analysis; type: functional, cell-based; settings: dose 0.5-5 µM, time 10.0 day
[31] = target: RAC-alpha serine/threonine-protein kinase (Mus musculus) (UniProt P31750); assay: Inhibition of AKT in mouse 3T3-L1 cells assessed as reduction in AKT phosphorylation in early differentiation at 0.5 to 5 uM after 48 hrs by Western blot analysis; type: cell-based; settings: dose 0.5-5 µM
3T3-L1 [32] = assay: Activation of AMPK-ACC signalling pathway in mouse 3T3-L1 cells assessed as increase in ACC phosphorylation in early differentiation at 0.5 to 5 uM after 48 hrs by Western blot analysis; type: cell-based; settings: filed as activator, dose 0.5-5 µM
[33] = target: RAC-alpha serine/threonine-protein kinase (Mus musculus) (UniProt P31750); assay: Inhibition of AKT in mouse 3T3-L1 cells assessed as reduction in AKT phosphorylation in maturation at 0.5 to 5 uM after 48 hrs by Western blot analysis; type: cell-based; settings: dose 0.5-5 µM
3T3-L1 [34] = assay: Inhibition of AKT/GSK3beta signalling pathway in mouse 3T3-L1 cells assessed as reduction in GSK3beta phosphorylation in maturation at 0.5 to 5 uM after 48 hrs by Western blot analysis; type: cell-based; settings: dose 0.5-5 µM
[35] = target: T1, 5'-AMP-activated protein kinase (Mus musculus) (UniProt Q5EG47+Q8BRK8+Q6PAM0+O54950+Q91WG5+Q9R078+Q8BGM7); assay: Activation of AMPK in mouse 3T3-L1 cells assessed as increase in AMPKalpha phosphorylation in maturation at 0.5 to 5 uM after 48 hrs by Western blot analysis; type: cell-based; settings: filed as activator, dose 0.5-5 µM
[36] = target: T1, 5'-AMP-activated protein kinase (Mus musculus); assay: Activation of AMPK in mouse 3T3-L1 cells assessed as increase in AMPKbeta phosphorylation in maturation at 0.5 to 5 uM after 48 hrs by Western blot analysis; type: cell-based; settings: filed as activator, dose 0.5-5 µM
3T3-L1 [37] = assay: Activation of AMPK-ACC signalling pathway in mouse 3T3-L1 cells assessed as increase in ACC phosphorylation in maturation at 0.5 to 5 uM after 48 hrs by Western blot analysis; type: cell-based; settings: filed as activator, dose 0.5-5 µM

RAC-alpha serine/threonine-protein kinase (Mus musculus), sequence (P31750 whole entry): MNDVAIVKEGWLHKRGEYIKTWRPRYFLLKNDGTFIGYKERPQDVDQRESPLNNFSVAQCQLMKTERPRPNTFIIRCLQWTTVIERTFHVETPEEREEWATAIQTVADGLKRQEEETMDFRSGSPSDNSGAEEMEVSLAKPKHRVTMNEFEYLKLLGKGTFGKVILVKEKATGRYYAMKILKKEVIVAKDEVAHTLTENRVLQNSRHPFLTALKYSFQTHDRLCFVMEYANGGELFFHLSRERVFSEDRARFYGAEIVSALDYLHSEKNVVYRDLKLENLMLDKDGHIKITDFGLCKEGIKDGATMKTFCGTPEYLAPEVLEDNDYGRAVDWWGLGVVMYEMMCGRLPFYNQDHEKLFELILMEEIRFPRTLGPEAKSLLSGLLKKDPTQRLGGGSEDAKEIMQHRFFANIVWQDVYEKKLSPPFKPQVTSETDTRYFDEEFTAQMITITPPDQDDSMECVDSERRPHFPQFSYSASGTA

COc1cc(CCc2cc(O)c(O)c(OC)c2)ccc1O
active: Activity (3T3-L1 [1]) | Activity (3T3-L1 [2]) | Activity (3T3-L1 [3]) | Activity (3T3-L1 [4]) | Activity (3T3-L1 [5]) | Activity (3T3-L1 [6]) Dde | Activity (3T3-L1 [7]) Dde | Activity (3T3-L1 [8]) Dde | Activity (3T3-L1 [9]) Dde | Activity (3T3-L1 [10]) Dde | Activity (3T3-L1 [11]) Dde | Activity (3T3-L1 [12]) | Activity (3T3-L1 [13]) | Activity (3T3-L1 [14]) | Activity (3T3-L1 [15]) | Activity (3T3-L1 [16]) | Activity (3T3-L1 [17]) | Activity (3T3-L1 [18]) | Activity (3T3-L1 [19]) | Activity (3T3-L1 [20]) | Activity (3T3-L1 [21]) | Activity (3T3-L1 [22]) | Activity (3T3-L1 [23]) | Activity (3T3-L1 [24]) | Activity (3T3-L1 [25]) | Activity (3T3-L1 [26]) | Activity (3T3-L1 [27]) | Activity (3T3-L1 [28]) | Activity (3T3-L1 [29]) | Activity (3T3-L1 [30]) | inhibition [31] | Activity (3T3-L1 [32]) | inhibition [33] | inhibition (3T3-L1 [34]) | Activity [35] | Activity [36] | Activity (3T3-L1 [37])
